Assay results from PubChem BioAssay AID330 (DTP/NCI, 2004).
Several values for one entry are separate records, joined by “and”; a condition that tells them apart may be missing. Equal values may be shown once. Inconclusive results and toxic doses are left out.

System: P388 leukemia ip, CD2F1 mice, survival T/C
Assay: NCI In Vivo Anticancer Drug Screen. Data for tumor model P388 Leukemia (intraperitoneal) in CD2F1 (CDF1) mice
Conditions: endpoint: median survival time, higher = longer survival
Procedure, shortened: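 Mice carrying the transplanted tumor received test compound or vehicle. Survival was recorded in each group, and the value is the treated-group measurement divided by that of the vehicle-treated control group.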

[1] = dose: 100.0 mg/kg/injection, schedule: Q04DX002 (ip), vehicle: saline with Tween-80
[2] = dose: 200.0 mg/kg/injection, schedule: Q04DX002 (ip), vehicle: saline with Tween-80
[3] = dose: 400.0 mg/kg/injection, schedule: Q04DX002 (ip), vehicle: saline with Tween-80
[4] = dose: 50.0 mg/kg/injection, schedule: Q01DX009 (ip), vehicle: saline with Tween-80
[5] = dose: 50.0 mg/kg/injection, schedule: Q01DX009 (ip), vehicle: Klucel (hydroxypropylcellulose) (HPC)
[6] = dose: 100.0 mg/kg/injection, schedule: Q01DX009 (ip), vehicle: Klucel (hydroxypropylcellulose) (HPC)
[7] = dose: 60.0 mg/kg/injection, schedule: Q01DX005 (ip), vehicle: saline with Tween-80
[8] = dose: 120.0 mg/kg/injection, schedule: Q01DX005 (ip), vehicle: saline with Tween-80
[9] = dose: 240.0 mg/kg/injection, schedule: Q01DX005 (ip), vehicle: saline with Tween-80

SMILES: Cn1c2c(c3cc(Cl)cc(Cl)c31)-c1ncncc1CC2
- T/C [1]: 98 % of control
- T/C [2]: 98 % of control
- T/C [3]: 95 % of control

SMILES: COC(=O)[C@@H]1c2cc3c(c(O)c2[C@@H](OC2OC(C)C(OC)C(C)(OC)C2OC)C[C@]1(C)O)C(=O)c1c(O)cc2c(c1C3=O)O[C@H]1O[C@]2(C)[C@H](O)[C@@H](N(C)C)[C@@H]1O (stereo partly drawn)
- T/C (dose: 0.12 mg/kg/injection, schedule: Q01DX009 (ip), vehicle: saline): 120 % of control
- T/C (dose: 0.25 mg/kg/injection, schedule: Q01DX009 (ip), vehicle: other): 122 % of control
- T/C (dose: 0.25 mg/kg/injection, schedule: Q01DX010 (ip), vehicle: saline): 110 % of control
- T/C (dose: 0.25 mg/kg/injection, schedule: Q04DX003 (ip), vehicle: other): 116 % of control
- T/C (dose: 0.25 mg/kg/injection, schedule: Q04DX003 (ip), vehicle: saline): 117 % of control
- T/C (dose: 0.43 mg/kg/injection, schedule: Q04DX003 (ip), vehicle: water): 112 % of control
- T/C (dose: 0.5 mg/kg/injection, schedule: Q01DX009 (ip), vehicle: other): 118 % of control
- T/C (dose: 0.5 mg/kg/injection, schedule: Q01DX010 (ip), vehicle: saline): 105 % of control
- T/C (dose: 0.5 mg/kg/injection, schedule: Q04DX003 (ip), vehicle: other): 109 % of control
- T/C (dose: 0.52 mg/kg/injection, schedule: Q04DX003 (ip), vehicle: clinical formulation): 119 % of control
- T/C (dose: 0.72 mg/kg/injection, schedule: Q04DX003 (ip), vehicle: water): 115 % of control
- T/C (dose: 0.86 mg/kg/injection, schedule: Q04DX003 (ip), vehicle: clinical formulation): 121 % of control
- T/C (dose: 1.0 mg/kg/injection, schedule: Q01DX009 (ip), vehicle: other): 91 % of control
- T/C (dose: 1.0 mg/kg/injection, schedule: Q01DX009 (ip), vehicle: saline + alcohol): 86 % of control
- T/C (dose: 1.0 mg/kg/injection, schedule: Q01DX009 (ip), vehicle: saline): 150 % of control
- T/C (dose: 1.0 mg/kg/injection, schedule: Q01DX010 (ip), vehicle: saline): 100 % of control
- T/C (dose: 1.44 mg/kg/injection, schedule: Q04DX003 (ip), vehicle: clinical formulation): 114 % of control
- T/C (dose: 2.4 mg/kg/injection, schedule: Q04DX003 (ip), vehicle: clinical formulation): 107 % of control
- T/C (dose: 3.33 mg/kg/injection, schedule: Q04DX003 (ip), vehicle: water): 120 % of control
- T/C (dose: 125.0 micrograms/kg/injection, schedule: Q01DX009 (ip), vehicle: other): 111 % of control
- T/C (dose: 375.0 micrograms/kg/injection, schedule: Q04DX003 (ip), vehicle: saline): 121 % of control
- T/C (dose: 500.0 micrograms/kg/injection, schedule: Q04DX003 (ip), vehicle: saline): 118 % of control
- T/C (dose: 1000.0 micrograms/kg/injection, schedule: Q01DX009 (ip), vehicle: saline): 114 % of control
- T/C (dose: 1500.0 micrograms/kg/injection, schedule: Q01DX009 (ip), vehicle: saline): 92 % of control
- T/C (dose: 3000.0 micrograms/kg/injection, schedule: Q04DX003 (ip), vehicle: saline): 91 % of control

SMILES: O=C1OC2(CCCCC2)OC(=O)C1=C/C=C/c1ccc([N+](=O)[O-])o1
- T/C (dose: 3.13 mg/kg/injection, schedule: Q01DX009 (ip), vehicle: saline with Tween-80): 93 % of control
- T/C (dose: 6.25 mg/kg/injection, schedule: Q01DX009 (ip), vehicle: saline with Tween-80): 88 % of control
- T/C (dose: 12.5 mg/kg/injection, schedule: Q01DX009 (ip), vehicle: saline with Tween-80): 102 % of control
- T/C (dose: 25.0 mg/kg/injection, schedule: Q01DX009 (ip), vehicle: saline with Tween-80): 102 % of control
- T/C [4]: 100 % of control

SMILES: O=C(O)C(Cc1ccc(C(=O)C(F)(F)F)cc1)NC(=O)C(F)(F)F (stereo not drawn)
- T/C (dose: 100.0 mg/kg/injection, schedule: Q04DX003 (ip), vehicle: saline with Tween-80): 100 % of control
- T/C (dose: 200.0 mg/kg/injection, schedule: Q04DX003 (ip), vehicle: saline with Tween-80): 103 % of control
- T/C (dose: 400.0 mg/kg/injection, schedule: Q04DX003 (ip), vehicle: saline with Tween-80): 99 % of control

SMILES: CC(C)(C)c1cc(-c2cc(C(C)(C)C)nc(N)n2)nc(N)n1
- T/C (dose: 60.0 mg/kg/injection, schedule: Q01DX005 (ip), vehicle: saline): 87 % of control
- T/C (dose: 120.0 mg/kg/injection, schedule: Q01DX005 (ip), vehicle: saline): 105 % of control

SMILES: COc1cccc2c1C(=O)c1c(O)c3c(c(O)c1C2=O)CC(OC1CC(N)C(O)C(C)O1)(C(C)=O)CC3OC1CC(N)C(O)C(C)O1 (stereo not drawn)
- T/C (dose: 1.56 mg/kg/injection, schedule: Q01DX009 (ip), vehicle: water): 107 % of control
- T/C (dose: 3.13 mg/kg/injection, schedule: Q01DX009 (ip), vehicle: water): 103 % of control
- T/C (dose: 6.25 mg/kg/injection, schedule: Q01DX009 (ip), vehicle: water): 108 % of control
- T/C (dose: 12.5 mg/kg/injection, schedule: Q01DX009 (ip), vehicle: water): 122 % of control

SMILES: O=C1CSC(=O)N1c1cccc(C(F)(F)F)c1
- T/C [4]: 104 % of control
- T/C (dose: 100.0 mg/kg/injection, schedule: Q01DX009 (ip), vehicle: saline with Tween-80): 97 % of control

SMILES: CC(C)(C)N1COC(c2ccccc2)C1 (stereo not drawn)
- T/C (dose: 50.0 mg/kg/injection, schedule: Q01DX005 (ip), vehicle: saline): 106 % of control
- T/C (dose: 100.0 mg/kg/injection, schedule: Q01DX005 (ip), vehicle: saline): 111 % of control

SMILES: CCCC(C)C(CC)C(=O)NC(N)=O (stereo not drawn)
- T/C (dose: 12.5 mg/kg/injection, schedule: Q01DX009 (ip), vehicle: Klucel (hydroxypropylcellulose) (HPC)): 101 % of control
- T/C (dose: 25.0 mg/kg/injection, schedule: Q01DX009 (ip), vehicle: Klucel (hydroxypropylcellulose) (HPC)): 102 % of control
- T/C [5]: 98 % of control
- T/C [6]: 101 % of control

SMILES: C[CH2][Sn]([CH2]C)[S]CC(N)C(=O)O (stereo not drawn)
- T/C (dose: 3.75 mg/kg/injection, schedule: Q01DX005 (ip), vehicle: Klucel (hydroxypropylcellulose) (HPC)): 110 % of control
- T/C (dose: 7.5 mg/kg/injection, schedule: Q01DX005 (ip), vehicle: Klucel (hydroxypropylcellulose) (HPC)): 120 % of control

SMILES: NC(CCl)=NCc1ccccc1
- T/C (dose: 7.5 mg/kg/injection, schedule: Q01DX005 (ip), vehicle: saline): 99 % of control
- T/C (dose: 15.0 mg/kg/injection, schedule: Q01DX005 (ip), vehicle: saline): 96 % of control
- T/C (dose: 30.0 mg/kg/injection, schedule: Q01DX005 (ip), vehicle: saline): 111 % of control

SMILES: O=C(NN(Cn1c(=S)sc2ccccc21)Cn1c(=S)sc2ccccc21)c1ccccc1O
- T/C (dose: 50.0 mg/kg/injection, schedule: Q01DX005 (ip), vehicle: Klucel (hydroxypropylcellulose) (HPC)): 89 % of control
- T/C (dose: 100.0 mg/kg/injection, schedule: Q01DX005 (ip), vehicle: Klucel (hydroxypropylcellulose) (HPC)): 91 % of control
- T/C (dose: 200.0 mg/kg/injection, schedule: Q01DX005 (ip), vehicle: Klucel (hydroxypropylcellulose) (HPC)): 98 % of control

SMILES: O=S1(=O)Oc2c(Cl)cc(Cl)cc2S(=O)(=O)Oc2c(Cl)cc(Cl)cc21
- T/C [7]: 93 % of control
- T/C [8]: 94 % of control
- T/C [9]: 86 % of control

SMILES: N#Cc1ccc(Br)cc1[N+](=O)[O-]
- T/C (dose: 0.78 mg/kg/injection, schedule: Q01DX009 (ip), vehicle: Klucel (hydroxypropylcellulose) (HPC)): 106 % of control
- T/C (dose: 1.56 mg/kg/injection, schedule: Q01DX009 (ip), vehicle: Klucel (hydroxypropylcellulose) (HPC)): 102 % of control
- T/C (dose: 3.12 mg/kg/injection, schedule: Q01DX009 (ip), vehicle: Klucel (hydroxypropylcellulose) (HPC)): 100 % of control and 96 % of control

SMILES: Cc1c(C#N)c(=O)[nH]c2ccc([N+](=O)[O-])cc12
- T/C [7]: 94 % of control
- T/C [8]: 93 % of control
- T/C [9]: 100 % of control

SMILES: COc1ccccc1N1CCN(CCCNc2cc(=O)n(C)c(=O)n2C)CC1
- T/C [5]: 98 % of control
- T/C [6]: 104 % of control
- T/C (dose: 200.0 mg/kg/injection, schedule: Q01DX009 (ip), vehicle: Klucel (hydroxypropylcellulose) (HPC)): 108 % of control

SMILES: CCOc1cccc(/C=N/NC(=O)C(N)Cc2ccc(O)cc2)c1O (stereo not drawn)
- T/C (dose: 50.0 mg/kg/injection, schedule: Q01DX005 (ip), vehicle: saline with Tween-80): 99 % of control
- T/C (dose: 100.0 mg/kg/injection, schedule: Q01DX005 (ip), vehicle: saline with Tween-80): 99 % of control
- T/C (dose: 200.0 mg/kg/injection, schedule: Q01DX005 (ip), vehicle: saline with Tween-80): 99 % of control

SMILES: O=C(CC(NC(=O)OCc1ccccc1)C(=O)O)OCc1ccccc1 (stereo not drawn)
- T/C (dose: 100.0 mg/kg/injection, schedule: Q04DX003 (ip), vehicle: saline sonified): 110 % of control
- T/C (dose: 200.0 mg/kg/injection, schedule: Q04DX003 (ip), vehicle: saline sonified): 105 % of control

SMILES: CS/C(N)=N\NCCC(=O)Nc1c(C)cccc1C
- T/C [1]: 100 % of control
- T/C [2]: 91 % of control
- T/C [3]: 91 % of control
